Tests used:
[1] = Young growing male Wistar rats fed obesity-inducing diet, 90 days (Example 3); format: in vivo; settings: fenfluramine group
Method: Young growing male Wistar rats, of about 220 grams average initial weight, were fed the obesity-inducing diet. Concomitantly, the rats were administered, 1.0 gram DRD, 1.5 grams DRD, or 5.0 grams DRD, by daily intubation, for 90 days. The treatment groups gained 21%, 24% and 47% less weight, respectively, than did the placebo controls. The rats administered fenfluramine gained 22% less weight than did the controls.
Thus, the prevention of weight gain appears to be due to a reduction in fat storage, and that the skeletal muscle had been preserved.

[2] = Female Wistar rats fed high fat diet for 56 days (Example 4); format: in vivo
Method: Sixty female Wistar rats, averaging 220 g in weight, were randomly allotted to five experimental groups and fed the high fat diet described in Table I below for 56 days. The rats were housed individually in wire mesh cages equipped with an automated watering system. The room housing the rats was maintained at a temperature of 22° to 24° C., with a light-dark cycle of 12 hours each. Following the one-week quarantine period the rats were adapted to handling, and to oral insertion of the gastric intubation device over the next ten days. Water was intubated once a day during this period. After ten days, the rats no longer indicated marked distress during the procedure.
After adaption to the intubation procedure, the diet of Table I was initiated. This diet is comprised of 56% of energy from fat. All treatment and placebo intubations occurred between 1600 and 1800 hours. Individual food intake was measured daily throughout the study. Body weight was measured daily through day 23 and twice weekly thereafter. The experimental period lasted 56 days. Lin, X., M. R. Chavex, R. C. Bruch, et al., J. Nutrition 128:1606-13, 1998.
Referring to Table II below, the five groups consisted of: the control group (n=15), which were fed ad libitum, and were intubated daily with 1 mL of water. The “low dose DRD” (n=10) and the “high dose DRD” (n=15) groups, which were fed ad libitum and administered daily 1 mL of the aqueous extract obtained from 0.75 grams and 1.50 grams of the initial dried herb mixture by intubation, respectively. The “fenfluramine group” (n=10), which was fed ad libitum and received 2 mg/kg fenfluramine in 1 mL of water daily, by intubation, and, finally, a fifth group (n=10) was pair-fed to the high dose DRD group and was administered 1 mL of water daily, by intubation.
Food consumption for all rats was determined daily, and body weights were obtained daily for the first 23 days, and then twice a week for the next 33 days. After 56 days all the rats except five from the control group and five from the high dose DRD group were sacrificed. Trunk blood was collected, and the eviscerated carcasses were homogenized, dried and assayed for body composition. White and brown fat depots, liver, kidney, spleen, heart, and gastrocnemius muscle were weighed. During the 56 days of the experiment, all rats were observed daily by the animal technician, and weekly by a veterinarian, and notations were made regarding physical activity/lethargy, fur condition, skin condition, eye condition, stools, and “others.” There were no noticeable differences among any of the groups with regard to physical activity, skin condition, and eye condition. […] This behavior lasted about one week and then stopped.
The serum was analyzed for insulin, corticosterone and leptin, using standard commercially available immunoassays for the rat. Alkaline phosphatase, alanine aminotransferase, amylase, aspartate aminotransferase, chloride, cholesterol, creatinine phosphokinase, γ-glutamyl transpeptidase, glucose, hemoglobin, hematocrit, mean cell volume, platelets, potassium, sodium, triglycerides, and white blood cells were assayed by standard clinical laboratory methods. All data were pooled by treatment and subjected to a One-Way Analysis of Variance (ANOVA) followed by a Scheffe Comparison of Means analysis (for unbalanced groups). Statistix® for Windows, 1998. Analytical Software, Tallahassee, Fla. 32317.
The rats that were not sacrificed and had previously received the high dose DRD had their treatment withdrawn during a 14-day “recovery period.” On the 15th day of this recovery period these rats, plus five control rats, were sacrificed and all the above analyses were conducted.

[3] = in vivo; cited from earlier work
[4] = d-fenfluramine 2 mg/kg, 56 days

For `CCNC(C)Cc1cccc(C(F)(F)F)c1` (centres unmarked) [fenfluramine], the “less weight gained than controls” value [1] was 22%, the “Average Final Weight, Gms ± SD.” value [2, 4] was 325.7 ± 33.7 Gms and the “Average Gain, Gms ± SD” value [2, 4] was 106.9 ± 22.0 Gms. The “calories required to cause a one-gram weight gain” value ([2]; fenfluramine) was 18.16 calories, the “food efficiency: gain in weight per calorie available for gain above maintenance” value ([2]; fenfluramine) was 0.0545 grams per calorie and the “less weight gained than controls” value ([2]; fenfluramine 2 mg/kg daily, 56th day) was 12.3%. The total food consumed ([2]; fenfluramine, 56 day period) was “consumed less total food over the 56 day period than the controls”, the “food efficiency lower than controls (grams gain per gram of food ingested)” value ([2]; fenfluramine, 56 days) was 7.8% and the “weight gained as fat (body composition)” value ([2]; fenfluramine, 56 days) was “gained significantly less fat than did the controls”. The serum leptin ([2]; fenfluramine, end of 56-day treatment) was “less leptin than controls”.

For `CCCCCCCCCCC[C@@H](C[C@@H]1OC(=O)[C@H]1CCCCCC)OC(=O)[C@H](CC(C)C)NC=O` [Orlistat], the “decrease of the amount of fat absorbed from the diet” value [3] is listed as “diet by 30%”.

Reference: patent US20040071799A1, “Herbal compositions and methods for effecting weight loss in humans” (priority 2001, published 2004)
